pEC50, pIC50: −log10 of the molar value.
How the values were obtained:
[1] = molecular target: Free fatty acid receptor 1 (Homo sapiens) (UniProt O14842); experiment: Agonist activity at human GPR40 expressed in HEK293 cells assessed as effect on calcium flux; assay type: functional, cell-based
[2] = molecular target: Free fatty acid receptor 1 (Homo sapiens) (UniProt O14842); experiment: Agonist activity at human GPR40 expressed in HEK293 cells assessed as calcium flux response relative to linoleic acid; assay type: functional, cell-based; design: concentration or dose not given beside the values
[3] = molecular target: Free fatty acid receptor 1 (Mus musculus) (UniProt Q76JU9); experiment: Agonist activity at GPR40 in mouse MIN6 cells assessed as stimulation of 25 mM glucose-mediated insulin secretion at 30 uM; assay type: functional, cell-based
[4] = molecular target: Free fatty acid receptor 1 (Mus musculus, UniProt Q76JU9); experiment: Agonist activity at GPR40 in mouse MIN6 cells assessed as stimulation of 25 mM glucose-mediated insulin secretion; assay type: functional, cell-based
[5] = molecular target: Free fatty acid receptor 1 (Mus musculus) (UniProt Q76JU9); experiment: Agonist activity at GPR40 in mouse MIN6 cells assessed as stimulation of 5 mM glucose-mediated insulin secretion at 30 uM; assay type: functional, cell-based
[6] = molecular target: T1, Cytochrome P450 1A2 (Homo sapiens, UniProt P05177); experiment: Inhibition of human CYP1A2; assay type: ADME
T1 sequence (P05177 whole entry): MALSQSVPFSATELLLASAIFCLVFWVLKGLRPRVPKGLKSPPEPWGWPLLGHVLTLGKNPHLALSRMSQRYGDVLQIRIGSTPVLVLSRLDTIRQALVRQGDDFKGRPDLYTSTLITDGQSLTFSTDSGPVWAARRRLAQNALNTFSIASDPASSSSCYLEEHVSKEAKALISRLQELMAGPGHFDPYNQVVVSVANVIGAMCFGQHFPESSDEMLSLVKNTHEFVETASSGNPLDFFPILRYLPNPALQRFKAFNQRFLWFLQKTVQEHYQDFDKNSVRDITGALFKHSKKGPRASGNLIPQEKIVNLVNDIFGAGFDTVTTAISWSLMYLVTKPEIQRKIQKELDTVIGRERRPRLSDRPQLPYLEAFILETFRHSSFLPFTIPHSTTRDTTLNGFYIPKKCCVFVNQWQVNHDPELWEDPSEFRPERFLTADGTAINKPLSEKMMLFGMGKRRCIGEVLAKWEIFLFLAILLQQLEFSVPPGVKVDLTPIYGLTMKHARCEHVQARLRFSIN

[7] = molecular target: Cytochrome P450 2C9 (Homo sapiens, UniProt P11712); experiment: Inhibition of human CYP2C9; assay type: ADME
[8] = molecular target: Cytochrome P450 2C19 (Homo sapiens, UniProt P33261); experiment: Inhibition of human CYP2C19; assay type: ADME
[9] = molecular target: Cytochrome P450 2D6 (Homo sapiens, UniProt P10635); experiment: Inhibition of human CYP2D6; assay type: ADME
[10] = molecular target: Cytochrome P450 3A4 (Homo sapiens, UniProt P08684); experiment: Inhibition of human CYP3A4; assay type: ADME
[11] = Cmax in rat at 2 mg/kg, iv; assay type: ADME, organism-based; design: dose 2 mg/kg, route intravenous; settings: in vivo
[12] = Cmax in rat at 10 mg/kg, po; assay type: ADME, organism-based; design: dose 10 mg/kg, route oral; settings: in vivo
[13] = Tmax in rat at 2 mg/kg, iv; assay type: ADME, organism-based; design: dose 2 mg/kg, route intravenous; settings: in vivo
[14] = Tmax in rat at 10 mg/kg, po; assay type: ADME, organism-based; design: dose 10 mg/kg, route oral; settings: in vivo
[15] = AUC in rat at 2 mg/kg, iv; assay type: ADME, organism-based; design: dose 2 mg/kg, route intravenous; settings: plasma
[16] = AUC in rat at 10 mg/kg, po; assay type: ADME, organism-based; design: dose 10 mg/kg, route oral; settings: plasma
[17] = Half life in rat at 2 mg/kg, iv; assay type: ADME, organism-based; design: dose 2 mg/kg, route intravenous; settings: in vivo
[18] = Half life in rat at 10 mg/kg, po; assay type: ADME, organism-based; design: dose 10 mg/kg, route oral; settings: in vivo
[19] = Clearance in rat at 2 mg/kg, iv; assay type: ADME, organism-based; design: dose 2 mg/kg, route intravenous; settings: in vivo
[20] = Oral bioavailability in rat at 10 mg/kg, po; assay type: ADME, organism-based; settings: in vivo

Sequence of Free fatty acid receptor 1 (Mus musculus) (Q76JU9 whole entry): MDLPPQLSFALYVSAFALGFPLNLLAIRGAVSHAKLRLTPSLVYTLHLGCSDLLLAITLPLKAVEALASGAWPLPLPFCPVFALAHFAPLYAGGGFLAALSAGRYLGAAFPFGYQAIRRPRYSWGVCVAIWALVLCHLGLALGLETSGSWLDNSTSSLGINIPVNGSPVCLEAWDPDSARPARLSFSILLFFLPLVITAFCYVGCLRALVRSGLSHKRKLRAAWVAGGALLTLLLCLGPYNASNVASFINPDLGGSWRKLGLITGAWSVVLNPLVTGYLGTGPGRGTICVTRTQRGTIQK
Sequence of Free fatty acid receptor 1 (Homo sapiens) (O14842 whole entry): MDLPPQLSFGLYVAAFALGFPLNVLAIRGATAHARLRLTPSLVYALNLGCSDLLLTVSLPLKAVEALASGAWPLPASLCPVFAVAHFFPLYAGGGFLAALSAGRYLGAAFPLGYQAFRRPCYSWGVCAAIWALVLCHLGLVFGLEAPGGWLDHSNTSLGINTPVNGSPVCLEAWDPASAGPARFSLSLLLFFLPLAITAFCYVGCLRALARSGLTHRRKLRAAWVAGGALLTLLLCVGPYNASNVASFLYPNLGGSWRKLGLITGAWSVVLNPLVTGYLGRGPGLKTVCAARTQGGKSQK
Sequence of Cytochrome P450 2D6 (P10635 whole entry): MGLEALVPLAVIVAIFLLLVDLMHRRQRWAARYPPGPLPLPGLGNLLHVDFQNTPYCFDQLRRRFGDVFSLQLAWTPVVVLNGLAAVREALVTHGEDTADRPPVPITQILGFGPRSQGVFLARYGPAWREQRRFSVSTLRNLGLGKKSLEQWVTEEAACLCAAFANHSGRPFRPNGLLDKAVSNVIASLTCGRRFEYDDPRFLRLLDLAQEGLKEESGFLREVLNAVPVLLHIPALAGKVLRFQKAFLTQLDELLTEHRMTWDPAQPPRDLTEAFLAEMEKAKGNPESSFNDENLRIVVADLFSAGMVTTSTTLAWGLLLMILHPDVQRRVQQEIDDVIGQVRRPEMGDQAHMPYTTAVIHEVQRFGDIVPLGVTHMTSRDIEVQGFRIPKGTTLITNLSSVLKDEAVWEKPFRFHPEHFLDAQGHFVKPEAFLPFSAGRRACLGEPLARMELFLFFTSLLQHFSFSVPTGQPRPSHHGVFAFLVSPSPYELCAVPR
Sequence of Free fatty acid receptor 1 (Q76JU9 whole entry): as the sequence (Q76JU9 whole entry) above
Sequence of Cytochrome P450 2C9 (P11712 whole entry): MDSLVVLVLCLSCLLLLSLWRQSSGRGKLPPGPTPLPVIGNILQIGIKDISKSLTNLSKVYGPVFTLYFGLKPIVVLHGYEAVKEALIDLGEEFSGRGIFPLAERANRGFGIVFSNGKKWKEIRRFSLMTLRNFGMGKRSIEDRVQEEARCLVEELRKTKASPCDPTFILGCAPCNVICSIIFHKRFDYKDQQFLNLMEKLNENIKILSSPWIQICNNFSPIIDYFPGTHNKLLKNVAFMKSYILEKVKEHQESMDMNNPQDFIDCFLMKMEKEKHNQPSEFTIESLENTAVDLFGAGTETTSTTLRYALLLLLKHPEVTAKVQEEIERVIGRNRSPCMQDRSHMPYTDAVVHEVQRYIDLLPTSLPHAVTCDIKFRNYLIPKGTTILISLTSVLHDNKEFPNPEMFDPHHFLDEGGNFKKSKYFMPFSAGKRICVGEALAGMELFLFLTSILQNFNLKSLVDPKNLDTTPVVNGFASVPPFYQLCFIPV
Sequence of Cytochrome P450 2C19 (P33261 whole entry): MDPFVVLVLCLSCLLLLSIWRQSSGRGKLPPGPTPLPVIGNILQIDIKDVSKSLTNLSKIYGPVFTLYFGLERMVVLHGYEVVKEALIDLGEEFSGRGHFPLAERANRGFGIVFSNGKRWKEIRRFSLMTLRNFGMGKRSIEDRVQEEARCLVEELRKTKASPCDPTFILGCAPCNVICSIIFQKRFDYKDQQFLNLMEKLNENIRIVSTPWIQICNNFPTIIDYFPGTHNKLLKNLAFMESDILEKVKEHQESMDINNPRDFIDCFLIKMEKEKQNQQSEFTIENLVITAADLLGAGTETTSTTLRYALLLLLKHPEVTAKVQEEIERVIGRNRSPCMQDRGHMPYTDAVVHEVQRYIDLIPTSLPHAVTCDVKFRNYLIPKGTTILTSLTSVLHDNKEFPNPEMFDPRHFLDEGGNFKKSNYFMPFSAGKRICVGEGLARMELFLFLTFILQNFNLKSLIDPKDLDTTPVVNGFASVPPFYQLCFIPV
Sequence of Cytochrome P450 3A4 (P08684 whole entry): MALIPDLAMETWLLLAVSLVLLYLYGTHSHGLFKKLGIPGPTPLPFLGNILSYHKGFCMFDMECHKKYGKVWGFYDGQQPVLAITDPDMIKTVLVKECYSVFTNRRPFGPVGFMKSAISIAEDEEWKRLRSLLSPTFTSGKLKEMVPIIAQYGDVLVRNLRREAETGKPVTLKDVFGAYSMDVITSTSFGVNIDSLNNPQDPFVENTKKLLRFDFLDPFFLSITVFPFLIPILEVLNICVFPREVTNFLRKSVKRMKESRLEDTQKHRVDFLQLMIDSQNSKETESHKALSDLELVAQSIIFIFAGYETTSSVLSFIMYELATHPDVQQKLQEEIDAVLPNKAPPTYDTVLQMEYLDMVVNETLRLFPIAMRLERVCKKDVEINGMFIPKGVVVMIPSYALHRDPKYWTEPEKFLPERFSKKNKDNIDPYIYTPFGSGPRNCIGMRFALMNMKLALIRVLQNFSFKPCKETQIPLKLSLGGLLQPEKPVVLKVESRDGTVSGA

ED50 [1] [µM] | Activity [2] [%] | Compound | other results
2.84 | 75 | CCCCOc1ccc(C(CC(=O)O)c2cccc(C(F)(F)F)c2)cc1 (stereo not drawn) | 
1.86 | 77 | CC(C)CCOc1ccc(C(CC(=O)O)c2ccccc2)cc1 (stereo not drawn) | 
3.16 | 72 | O=C(O)CC(c1ccccc1)c1ccc(OCCCC(F)(F)F)cc1 (stereo not drawn) | 
1.2 | 72 | CCCCOc1ccc(C(CC(=O)O)c2ccccc2)cc1 (stereo not drawn) | 
1.44 | 81 | CCCCOc1ccc(C(CC(=O)O)c2cccc(F)c2)cc1 (stereo not drawn) | 
0.64 | 96 | CCC(CC)COc1ccc(C(CC(=O)O)c2ccccc2)cc1 (stereo not drawn) | Activity [3]: 155%; pEC50 [4]: 5.66
> 10 | 3 | CC[C@@H](C)COc1ccc(C(CC(=O)O)c2ccccc2)cc1 (stereo in doubt; 22(A,R)) | 
1.29 | 79 | CCCCOc1ccc(C(CC(=O)O)c2cccs2)cc1 (stereo not drawn) | Activity [3]: 171%
7.58 | 43 | COCCCOc1ccc(C(CC(=O)O)c2ccccc2)cc1 (stereo not drawn) | 
4.8 | 66 | CCCCOc1ccc(C(CC(=O)O)c2ccccc2O)cc1 (stereo not drawn) | 
2.71 | 75 | C/C=C/COc1ccc(C(CC(=O)O)c2ccccc2)cc1 (stereo not drawn) | 
0.71 | 98 | CC[C@@H](C)COc1ccc(C(CC(=O)O)c2ccccc2)cc1 (stereo in doubt; 22(B,R)) | 
4.8 | 68 | CCCOc1ccc(C(CC(=O)O)c2ccccc2)cc1 (stereo not drawn) | 
2.71 | 81 | C=C(C)CCOc1ccc(C(CC(=O)O)c2ccccc2)cc1 (stereo not drawn) | 
2.88 | 68 | CCCCCCOc1ccc(C(CC(=O)O)c2ccccc2)cc1 (stereo not drawn) | Activity [3]: 137%
 |  | CCCCC/C=C\C/C=C\CCCCCCCC(=O)O | Activity [3]: 172%; Activity [5]: 141%
> 10 | 3 | CCCCOc1ccc(C(CCCC(=O)O)c2ccccc2)cc1 (stereo not drawn) | 
> 10 | 6 | CCCCCOc1cccc(C(CC(=O)O)c2ccccc2)c1 (stereo not drawn) | 
0.3 | 98 | CCC(C)COc1ccc(C(CC(=O)O)c2ccccc2)cc1 (stereo not drawn) | pIC50 [6]: < 4.66; pIC50 [7]: < 4.66; pIC50 [8]: < 4.66; pIC50 [9]: < 4.66; pIC50 [10]: < 4.66; Cmax [11]: 5780 ng/mL; Cmax [12]: 4760 ng/mL; Tmax [13]: 4.8 min; Tmax [14]: 0.5 h; AUC [15]: 2480 ng·h/mL; AUC [16]: 10700 ng·h/mL; half-life [17]: 4.78 h; half-life [18]: 6.33 h; clearance [19]: 13.8 mL/min/kg; bioavailability [20]: 87%
0.56 | 94 | CC[C@H](C)COc1ccc(C(CC(=O)O)c2ccccc2)cc1 (stereo in doubt; 22(B,S)) | 
> 10 | 3 | CCCCOc1ccc(C(CC(=O)O)c2ccc(C(F)(F)F)cc2)cc1 (stereo not drawn) | 
4.26 | 70 | CCCCCCCOc1ccc(C(CC(=O)O)c2ccccc2)cc1 (stereo not drawn) | 
> 10 | 2 | CC[C@H](C)COc1ccc(C(CC(=O)O)c2ccccc2)cc1 (stereo in doubt; 22(A,S)) | 
2.97 | 60 | CCCCCOc1ccc(C(CC(=O)O)c2ccccc2)cc1 (stereo not drawn) | Activity [3]: 122%

From ChEMBL document CHEMBL1143689, “Synthesis and biological evaluation of 3-aryl-3-(4-phenoxy)-propionic acid as a novel series of G protein-coupled receptor 40 agonists” (J Med Chem, 2007)
